The text below walks through data of ChEMBL document CHEMBL1142919, “Naphthoindole-based analogues of tryptophan and tryptamine: synthesis and cytotoxic properties” (Bioorg Med Chem, 2007).

The test system of assay [1] is K562. The experiment in a line: Antiproliferative activity against human K562 cells after 72 hrs by MTT test. The assay is classed as functional, cell-based. To be noted: K562, 72 h. On the technique in general: Tetrazolium dyes change colour on reduction, which living cells bring about.
Assay [2] concerns HCT-116. The experiment in a line: Antiproliferative activity against human HCT116 cells expressing wild-type p53 after 72 hrs by MTT test. In kind it is functional, cell-based. Conditions: HCT-116, 72 h.
For assay [3], the system named is HCT-116. Put plainly: Resistance index, Ratio of IC50 for human p53 deficient HCT116 p53-/- cells to IC50 for human wild type HCT116 cells. The assay is classed as functional.
The subject of assay [4] is K562. The experiment in a line: Resistance index, Ratio of IC50 for human drug-resistant K562i/S9 cells to IC50 for human K562 cells. The assay is classed as functional.
Assay [5] in a line: Antiproliferative activity against human multidrug-resistant K562i/S9 cells expressing Pgp after 72 hrs by MTT test. In kind it is functional, cell-based. Conditions: K562i/S9, 72 h.
The nature of assay [6]: Antiproliferative activity against human p53 deficient HCT116 p53-/- cells after 72 hrs by MTT test. The assay is classed as functional, cell-based. To be noted: HCT-116, 72 h.
Assay [7] concerns the target T1, DNA topoisomerase 1 (Homo sapiens) (UniProt P11387).
T1 sequence (whole entry): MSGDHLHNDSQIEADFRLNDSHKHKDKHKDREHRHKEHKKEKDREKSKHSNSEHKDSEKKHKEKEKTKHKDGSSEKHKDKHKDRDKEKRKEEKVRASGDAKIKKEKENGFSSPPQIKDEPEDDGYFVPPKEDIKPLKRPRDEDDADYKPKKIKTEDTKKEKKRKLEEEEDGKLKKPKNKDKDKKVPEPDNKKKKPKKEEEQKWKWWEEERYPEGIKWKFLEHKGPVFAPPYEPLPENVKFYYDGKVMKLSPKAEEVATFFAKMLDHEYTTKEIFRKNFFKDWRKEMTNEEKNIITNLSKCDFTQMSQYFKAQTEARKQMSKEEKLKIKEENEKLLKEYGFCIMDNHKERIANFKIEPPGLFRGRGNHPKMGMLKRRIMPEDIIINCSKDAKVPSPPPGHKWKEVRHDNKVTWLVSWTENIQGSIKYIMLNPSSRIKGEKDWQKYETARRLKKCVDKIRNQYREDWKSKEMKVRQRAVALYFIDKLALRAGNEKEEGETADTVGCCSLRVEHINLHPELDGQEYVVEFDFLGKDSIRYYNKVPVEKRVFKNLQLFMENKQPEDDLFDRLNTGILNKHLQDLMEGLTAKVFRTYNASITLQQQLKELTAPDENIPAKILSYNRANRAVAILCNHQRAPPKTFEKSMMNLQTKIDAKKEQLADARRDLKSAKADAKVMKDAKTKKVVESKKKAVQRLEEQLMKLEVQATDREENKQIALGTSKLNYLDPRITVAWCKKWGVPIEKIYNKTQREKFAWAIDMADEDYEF
The experiment in a line: Inhibition of topoisomerase 1 at >50 uM.

Assay [8] addresses T1, DNA topoisomerase 1 (Homo sapiens). The experiment in a line: Inhibition of topoisomerase 1 at 3 uM.
The target is the same in assay [9]. Put plainly: Inhibition of topoisomerase 1 assessed as attenuation of DNA relaxation.

Active and inactive are the calls of the source. The rule behind the calls is not given here. A value given as a limit tells only on which side of the number the result lay.

As for `CCOC(=O)C(N)Cc1c[nH]c2c(O)c3c(c(O)c12)C(=O)c1ccccc1C3=O` (stereo unspecified), the concentration for half-maximal inhibition (IC50) in the assay with K562 [1] was above 50 µM; in the assay on HCT-116 [2], 14.9 µM.

On to `CC(N)Cc1c[nH]c2c(O)c3c(c(O)c12)C(=O)c1ccccc1C3=O` (stereo unspecified), for which the “Ratio IC50” value with HCT-116 [3] is listed as 1; with K562 [4] it was 1.1. Moreover, the IC50 in [5] came out at 13.4 µM; with K562 [1] it was 12 µM; in assay [6], 5 µM; with HCT-116 [2] it was 4.8 µM.

Take `COc1cccc2c1C(=O)c1c(O)c3c(c(O)c1C2=O)C[C@@](O)(C(=O)CO)C[C@@H]3O[C@H]1C[C@H](N)[C@H](O)[C@H](C)O1` [DOXORUBICIN]: the outcome in assay [7] was Active. Besides, the IC50 stood at 4.4 µM in assay [6] and 1.4 µM in the assay with HCT-116 [2].

Regarding `NCCc1c[nH]c2c(O)c3c(c(O)c12)C(=O)c1ccccc1C3=O`, the entries for the “Ratio IC50” value with HCT-116 [3] and with K562 [4] were 1.1 and 0.6, respectively. Also, the outcome in assay [8] was Active. For the same molecule, the Activity result in [9] is “Dose-dependent effect”. Moreover, the IC50 in assay [5] turned out to be 2.2 µM; in the assay on K562 [1], 4 µM; in assay [6], 1.2 µM; in the assay with HCT-116 [2], 1.1 µM.

Regarding `NC(Cc1c[nH]c2c(O)c3c(c(O)c12)C(=O)c1ccccc1C3=O)C(=O)O` (stereo unspecified), the concentration for half-maximal inhibition (IC50) in the assay on K562 [1] and in the assay with HCT-116 [2] was above 50 µM throughout.

The term IC50 denotes the point on the concentration scale where inhibition reaches its midpoint. The low end stands for greater potency, the high end for weaker potency.
